These results are taken from patent US20130130376A1, “SCREENING METHODS, COMPOSITIONS IDENTIFIED THEREBY, TOOLS USEFUL FOR THE IDENTIFICATION THEREOF, AND CELL POPULATIONS PRODUCED THEREBY” (priority 2010, published 2013).

The assay concerns Jurkat cells. Kind of assay: ECMP attachment screen for Jurkat cell attachment on hydrogel array spots. The class given is cell-based, human. The note with it: printed alone in a 400 μm spot on hydrogel coated slide; nuclear fluorescence (DraQ) after 3 hours of attachment. How it is done:
In certain embodiments, stock solutions of extracellular matrix (ECM) components (0.01 mg/ml-1 mg/ml), such as Collagen I, III, IV, V, VI, Fibronectin, Laminin, and the like, as well as Hyaluronic Acid, gelatin and BSA (negative control) are mixed 1:1 with 200 mM acetate, 10 mM EDTA, 40% (v/v) glycerol, and 0.5% (v/v) Triton X-100 in MQH2O, at pH 4.9. Individual and combinations of different components are mixed in 384-well plates. This ECM based array is used to screen for the optimal cell attachment conditions.
The human acute T cell leukemia Jurkat cell line (ATTC Number TIB-153) was purchased from American Type Culture Collection (ATCC). Cells were cultured in RPMI-1640, supplemented with 10% FBS, 2 mmol/liter glutamin and antibiotics (100 IU/ml of penicillin G) and incubated at 37° C. in a humidified atmosphere of 5% CO2. […]
FIG. 3, for example, summarizes the attachment components that were identified to support Jurkat cell attachment on invention arrays. Briefly, Jurkat nuclear intensity was monitored by fluorescence using DraQ staining after 3 hours of attachment. The slides were read using a […] and fluorescence was quantified using the Genepix 2.0 software. […]

On to Fibronectin, for which the Jurkat cell attachment entry is “consistently supported attachment of Jurkat cells”.
